Among the data in patent US10758534B2 (Vertex Pharmaceuticals Incorporated, priority 2014, dated 2020) are EC30 values, retold here.

Each structure is given as a SMILES string.

T1 sequence (P13569 with tags, fused parts or gaps DEL508-508): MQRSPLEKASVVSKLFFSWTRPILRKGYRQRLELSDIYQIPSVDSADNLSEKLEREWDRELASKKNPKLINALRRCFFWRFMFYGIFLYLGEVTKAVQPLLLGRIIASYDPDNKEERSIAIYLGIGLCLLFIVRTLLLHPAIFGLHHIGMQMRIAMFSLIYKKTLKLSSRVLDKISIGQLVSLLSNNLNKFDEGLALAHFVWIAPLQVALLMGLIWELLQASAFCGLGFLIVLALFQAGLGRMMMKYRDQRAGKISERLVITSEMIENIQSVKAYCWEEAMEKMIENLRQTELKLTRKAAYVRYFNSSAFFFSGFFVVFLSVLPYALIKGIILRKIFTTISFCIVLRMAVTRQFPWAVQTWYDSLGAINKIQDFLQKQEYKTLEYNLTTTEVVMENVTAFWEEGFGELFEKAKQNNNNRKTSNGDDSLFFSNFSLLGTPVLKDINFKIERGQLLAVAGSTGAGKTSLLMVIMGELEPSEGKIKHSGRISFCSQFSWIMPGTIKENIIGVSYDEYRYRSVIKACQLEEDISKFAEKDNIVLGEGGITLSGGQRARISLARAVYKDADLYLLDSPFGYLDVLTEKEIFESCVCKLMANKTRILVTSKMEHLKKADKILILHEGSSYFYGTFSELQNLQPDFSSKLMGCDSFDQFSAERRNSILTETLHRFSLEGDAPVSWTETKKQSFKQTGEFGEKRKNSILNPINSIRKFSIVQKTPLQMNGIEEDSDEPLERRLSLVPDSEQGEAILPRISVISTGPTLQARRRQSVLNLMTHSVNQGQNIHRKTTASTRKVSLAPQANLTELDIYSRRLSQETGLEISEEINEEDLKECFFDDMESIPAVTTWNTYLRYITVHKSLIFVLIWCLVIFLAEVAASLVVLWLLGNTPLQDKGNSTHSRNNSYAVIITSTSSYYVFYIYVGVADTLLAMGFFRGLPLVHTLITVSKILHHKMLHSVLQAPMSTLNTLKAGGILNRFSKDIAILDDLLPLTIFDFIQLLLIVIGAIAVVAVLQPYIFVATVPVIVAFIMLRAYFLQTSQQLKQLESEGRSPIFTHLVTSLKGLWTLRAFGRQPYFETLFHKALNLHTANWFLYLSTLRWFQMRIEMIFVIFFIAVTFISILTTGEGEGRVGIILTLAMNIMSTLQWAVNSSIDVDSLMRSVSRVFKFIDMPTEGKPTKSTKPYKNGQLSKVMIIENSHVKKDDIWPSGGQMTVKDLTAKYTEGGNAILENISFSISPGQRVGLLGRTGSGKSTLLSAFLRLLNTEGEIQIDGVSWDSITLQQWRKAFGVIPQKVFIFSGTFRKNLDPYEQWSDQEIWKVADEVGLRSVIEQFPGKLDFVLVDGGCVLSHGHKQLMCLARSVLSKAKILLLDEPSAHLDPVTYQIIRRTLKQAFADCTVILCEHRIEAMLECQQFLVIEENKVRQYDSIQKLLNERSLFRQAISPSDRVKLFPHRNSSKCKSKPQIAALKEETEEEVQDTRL

This assay concerns the target T1, F508del (Homo sapiens, UniProt P13569, DEL508-508).
T1 construct: expressed in transfected cells
As to the kind of experiment: Protocol 1: membrane potential optical assay (FLIPR III, voltage sensing dye), identification of potentiator compounds. The class given is cell-based. To be noted: Table 3, compounds of Table 1. The procedure, abridged:
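NIH3T3 F508del cells, 27° C × 24 hrs; compound/DMSO pretreat → redistribution dye load → single forskolin addition with Cl⁻ gradient (gluconate-substituted bath, HEPES pH 7.4). FLIPR III membrane-potential fluorescence read.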
For the compound `CC(C)COc1cc(F)cc(-c2ccc(C(=O)NS(=O)(=O)N3CCC[C@@H](N)C3)c(N3C[C@@H](C)CC3(C)C)n2)c1` [Compound 1614, N—[[(3R)-3-amino-1-piperidyl]sulfonyl]-6-(3-fluoro-5-isobutoxy-phenyl)-2-[(4S)-2,2,4-trimethylpyrrolidin-1-yl]pyridine-3-carboxamide], the EC30 entry was “+++ (“+++” means <3 uM)”.

As to `COc1cc(Cl)ccc1-c1ccc(C(=O)NS(=O)(=O)c2cccc(N)n2)c(Oc2c(C)cc(C)cc2C)n1` [Compound 897, N-[(6-amino-2-pyridyl)sulfonyl]-6-(4-chloro-2-methoxy-phenyl)-2-(2,4,6-trimethylphenoxy)pyridine-3-carboxamide], the EC30 result was “+++ (“+++” means <3 uM)”.

Turning to `C[C@@H]1CN(c2nc(C(F)(F)F)ccc2C(=O)NS(=O)(=O)c2cccc(N)n2)C(C)(C)C1` [Compound 1556, N-[(6-amino-2-pyridyl)sulfonyl]-6-(trifluoromethyl)-2-[(4S)-2,2,4-trimethylpyrrolidin-1-yl]pyridine-3-carboxamide], the EC30 result is given as “+++ (“+++” means <3 uM)”.

`CC(C)COc1cc(F)cc(-c2ccc(C(=O)NS(=O)(=O)c3ccc(OCc4ccccc4)c(N)n3)c(N3C[C@@H](C)CC3(C)C)n2)c1` [Compound 1429, N-[(6-amino-5-benzyloxy-2-pyridyl)sulfonyl]-6-(3-fluoro-5-isobutoxy-phenyl)-2-[(4S)-2,2,4-trimethylpyrrolidin-1-yl]pyridine-3-carboxamide]: the EC30 result is recorded as “+++ (“+++” means <3 uM)”.

For the compound `CC1CN(c2ncc(C3=CC4CCC3C4)cc2C(=O)NS(=O)(=O)c2cccc(N)n2)C(C)(C)C1` (centres unmarked) [Compound 1888, N-[(6-amino-2-pyridyl)sulfonyl]-5-(3-bicyclo[2.2.1]hept-2-enyl)-2-(2,2,4-trimethylpyrrolidin-1-yl)pyridine-3-carboxamide], the EC30 result is “++ (“++” means between 3 uM and 10 uM)”.

Regarding `CC(C)COc1cc(F)cc(-c2ccc(C(=O)NS(=O)(=O)c3ccn[nH]3)c(NC3CCCC(C(F)(F)F)C3)n2)c1` (centres unmarked) [Compound 1281, 6-(3-fluoro-5-isobutoxy-phenyl)-N-(1H-pyrazol-5-ylsulfonyl)-2-[[3-(trifluoromethyl)cyclohexyl]amino]pyridine-3-carboxamide], the EC30 entry is “++ (“++” means between 3 uM and 10 uM)”.

Regarding `CC1CN(c2ncccc2C(=O)NS(=O)(=O)c2cccc(NCc3ccc4c(c3)OCO4)n2)C(C)(C)C1` (centres unmarked) [Compound 1814, N—[[6-(1,3-benzodioxol-5-ylmethylamino)-2-pyridyl]sulfonyl]-2-(2,2,4-trimethylpyrrolidin-1-yl)pyridine-3-carboxamide], the EC30 result was “+++ (“+++” means <3 uM)”.

On to `CC(C)=Cc1cc(C(=O)NS(=O)(=O)c2cccc(N)n2)c(N2CC(C)CC2(C)C)nc1C(C)(C)C` (centres unmarked) [Compound 1561, N-[(6-amino-2-pyridyl)sulfonyl]-6-tert-butyl-5-(2-methylprop-1-enyl)-2-(2,2,4-trimethylpyrrolidin-1-yl)pyridine-3-carboxamide], for which the EC30 result is listed as “+++ (“+++” means <3 uM)”.

On to `CC1CN(c2ncccc2C(=O)NS(=O)(=O)c2cccc(OC3(C)CCCC3)n2)C(C)(C)C1` (centres unmarked) [Compound 1936, N—[[6-(1-methylcyclopentoxy)-2-pyridyl]sulfonyl]-2-(2,2,4-trimethylpyrrolidin-1-yl)pyridine-3-carboxamide], for which the EC30 entry was “+++ (“+++” means <3 uM)”.

Regarding `CC(C)COc1cc(F)cc(-c2ccc(C(=O)NS(=O)(=O)c3cccc(N)n3)c(N3CCC3C)n2)c1` (centres unmarked) [Compound 1840, N-[(6-amino-2-pyridyl)sulfonyl]-6-(3-fluoro-5-isobutoxy-phenyl)-2-(2-methylazetidin-1-yl)pyridine-3-carboxamide], the EC30 entry was “+++ (“+++” means <3 uM)”.

In the case of `Cc1nc(OC(C)C)ccc1-c1ccc(C(=O)NS(=O)(=O)c2cccc(N)n2)c(N2CC(C)CC2(C)C)n1` (centres unmarked) [Compound 814, N-[(6-amino-2-pyridyl)sulfonyl]-6-(6-isopropoxy-2-methyl-3-pyridyl)-2-(2,2,4-trimethylpyrrolidin-1-yl)pyridine-3-carboxamide], the EC30 result is on record as “+++ (“+++” means <3 uM)”.
